The source of these data is US9468624B2, “Small molecule antagonists of bacterial quorum-sensing receptors” (priority 2008, dated 2016).

Structures are written as SMILES.

One series concerns the target T1, LuxN (Vibrio campbellii, UniProt A7MRY4).
T1 construct: Light production from wild type V. harveyi (BB120), a luxPQ mutant (BB960), and a luxPQ, luxS double mutant (JMH624) was measured; endogenous in cells; host or cells: V. harveyi BB120, BB960 (luxQ::Tn5), JMH624 (ΔluxM, luxQ::Tn5)
The series can be described thus: V. harveyi bioluminescence dose-response. Format: cell-based, Vibrio harveyi. Particulars: IC50 for inhibition of bioluminescence. On the procedure: Wild type C. violaceum strain ATCC31532 was purchased from the ATCC. The cviI mutant strain, CV026 was kindly supplied by Clay Fuqua and Paul Williams. C. violaceum strains were grown aerobically at 30° C. in either Luria-Bertani broth or Nutrient Broth supplemented with 1 mM trypotophan. V. harveyi strains were grown aerobically at 30° C. in autoinducer bioassay (AB) broth. AI-1 dose-response curves were generated in V. harveyi strains BB120, BB960 and JMH624 as described. E. coli was grown at 37° C. in Luria Bertani broth. The plasmid pET23b (Novagen) was used for expressing cviR in E. coli strain BL21-Gold (DE3) or BL21(DE3) pLysS (Stratagene) and maintained by inclusion of Ampicillin at 100 μg/ml. Plasmid pEVS141 was used for the vioA-gfp promoter fusion and maintained with 50 μg/ml of Kanamycin. C. elegans wild type strain, N2 was used for all of the nematode infection studies. Worms were propagated on Nematode Growth Media (NGM) medium with an E. coli OP50 lawn as the food source and allowed to multiply at 20° C.
To determine the properties of CTL and CL in relation to the LuxN receptor, the in vivo activity was examined of 4606-4237, CTL, and CL for V. harveyi LuxN using dose response analyses of the endogenous quorum-sensing-activated target, bioluminescence. Three different V harveyi strains were examined (1) The wild type V. harveyi strain BB120 which has multiple quorum-sensing circuits, and thus responds to multiple autoinducers, only one of which is the AHL acting through LuxN. (2) V. harveyi BB960 which lacks the receptor for the second autoinducer making the AHL-LuxN circuit the dominant input into bioluminescence expression. (3) V. harveyi JMH624 which, in addition to lacking the receptor for the second autoinducer lacks the AHL synthase LuxM. Thus, V. harveyi JMH624 induces bioluminescence exclusively in response to the AHL, 3OH-C4-HSL signal but only when it is supplied exogenously. Exogenous addition of 20 nM 3OH-C4-HSL is sufficient to induce maximal bioluminescence in all of these strains.

Series [1] has as its system C. violaceum killing of C. elegans. Kind of series: C. elegans life span assay following C. violaceum infection. Format: in vivo, Caenorhabditis elegans. Particulars: wild type C. violaceum, CL 20 μM; untreated two days. On the procedure:
Life Span Assays. C. elegans lifespan assays were completed with at least 100 wild type N2 worms for each condition. C. elegans eggs were harvested from a large population of gravid adults using a standard bleaching protocol (30 mL 5% bleach, 15 mL N KOH, 55 mL DH2O). Harvested eggs were placed on lawns of fresh E. coli OP50 and allowed to hatch and grow to the young adult (L4) stage before being moved onto lawns of C. violaceum. Worms were scored for survival each day and transferred to new C. violaceum lawns every two days until all worms had expired.
In the presence of the mutant strain, the median C. elegans lifespan is twelve days (FIG. 7A; DMSO control). Exogenous addition of the native autoinducer molecule, C6-HSL restored quorum sensing and complemented the cviI mutant's ability to kill C. elegans (median lifespan=4 days, FIG. 7A).

In another series the target is CviR (Chromobacterium violaceum, UniProt D3W065). As to conditions: CviR expressed in E. coli, whole cell vs soluble extract, ligand 50 μM. On the procedure:
CviR Overexpression and Purification. CviR was overexpressed in BL21(DE3) pLysS by growing an overnight culture in LB supplemented with 100 μg/mL ampicillin and 10 μg/mL chloramphenicol. The culture was diluted 1:50 into fresh LB supplemented with 100 μg/mL ampicillin and 10 μg/mL chloramphenicol and grown shaking at 37° C. to an OD600 of 0.4. Various AHL or antagonist molecules were added to at 50 μM and incubated an additional 30 minutes at 30° C., after which expression was induced by the addition of 100 μM IPTG (isopropyl-β-D-thiogalactopyranoside) for 4 hours at 30° C. Cells were harvested by centrifugation and lysed in 20 mM imidazole pH 8.0, 100 mM NaCl, 0.5 mM EDTA and 5% glycerol via a Micro-fluidizer processor (MicroFluidics). Protein was purified via ion-exchange using a Hitrap Heparin HP column (GE Healthcare). Protein was eluted with a 100 mM to 1 M NaCl gradient. Fractions containing CviR were pooled and diluted in lysis buffer devoid of NaCl, and then further purified by cation exchange chromatography using a Hitrap SP HP column (GE Healthcare). CviR was eluted with a 100 mM to 1 M NaCl gradient.
The solubility characteristics of CviR were analyzed in the presence of the various molecules under study. […] As controls, the protein was also expressed in the absence of any AHL or antagonist. In each case, whole cell and soluble fractions of cell lysates were analyzed by SDS-PAGE to assess whether the CviR protein in question had been stabilized.

Where [2] appears, read: V. harveyi JMH624 + 20 nM 3OH-C4-HSL.

T1 sequence (A7MRY4 whole entry): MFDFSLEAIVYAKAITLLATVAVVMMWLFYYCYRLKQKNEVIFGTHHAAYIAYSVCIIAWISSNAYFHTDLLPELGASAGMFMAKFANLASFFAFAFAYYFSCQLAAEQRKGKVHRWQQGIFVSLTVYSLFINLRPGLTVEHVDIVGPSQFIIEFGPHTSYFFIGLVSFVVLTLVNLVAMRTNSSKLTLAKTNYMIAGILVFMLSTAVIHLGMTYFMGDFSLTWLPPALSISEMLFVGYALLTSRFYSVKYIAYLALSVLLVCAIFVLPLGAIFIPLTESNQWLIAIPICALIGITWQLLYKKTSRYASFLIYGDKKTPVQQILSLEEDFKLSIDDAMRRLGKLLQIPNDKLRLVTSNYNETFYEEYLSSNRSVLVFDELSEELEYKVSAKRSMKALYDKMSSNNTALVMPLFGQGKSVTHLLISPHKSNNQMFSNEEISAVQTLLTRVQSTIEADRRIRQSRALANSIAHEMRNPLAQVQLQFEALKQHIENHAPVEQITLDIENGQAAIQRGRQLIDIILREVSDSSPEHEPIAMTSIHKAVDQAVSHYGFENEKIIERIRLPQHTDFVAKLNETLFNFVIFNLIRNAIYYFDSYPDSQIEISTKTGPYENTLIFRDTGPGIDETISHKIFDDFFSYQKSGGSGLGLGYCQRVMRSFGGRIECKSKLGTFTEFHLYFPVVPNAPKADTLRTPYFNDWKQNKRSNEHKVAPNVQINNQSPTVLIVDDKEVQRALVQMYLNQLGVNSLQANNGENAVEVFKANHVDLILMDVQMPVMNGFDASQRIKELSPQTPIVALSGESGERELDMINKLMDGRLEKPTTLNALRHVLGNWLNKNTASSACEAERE
Sequence of CviR (D3W065 1-265): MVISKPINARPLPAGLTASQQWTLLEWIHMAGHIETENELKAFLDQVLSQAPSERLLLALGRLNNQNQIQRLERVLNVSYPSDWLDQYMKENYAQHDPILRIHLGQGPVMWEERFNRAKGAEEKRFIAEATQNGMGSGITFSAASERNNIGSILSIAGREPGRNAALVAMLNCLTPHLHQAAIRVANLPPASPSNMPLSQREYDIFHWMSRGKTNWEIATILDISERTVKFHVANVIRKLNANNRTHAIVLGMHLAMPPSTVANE

As a reminder, the IC50 is the concentration at which inhibition is half-maximal. `O=C(CCCOc1ccc(Cl)cc1)NC1CCOC1=O` (stereo not drawn) [CL, chlorolactone]: the results for the concentration for half-maximal inhibition (IC50) against LuxN (V. harveyi BB960), on LuxN (setting [2]) and on LuxN (wild type V. harveyi BB120) were 14 µM, 0.873 µM and 40 µM, respectively. The C. elegans lifespan entry in series [1] is “seven”. The “CviR folding and solubility in presence of ligand” value on CviR is “promoted CviR31532 folding and solubility”.
Consider `O=C(CCCOc1ccc(Cl)cc1)NC1CCSC1=O` (stereo not drawn) [CTL, Chloro-thiolactone], for which the IC50 turned out to be 28 µM against LuxN (V. harveyi BB960), 6 µM on LuxN (setting [2]) and 150 µM at LuxN (wild type V. harveyi BB120). The “CviR folding and solubility in presence of ligand” value on CviR was “promoted CviR31532 folding and solubility”.
